Kd data for 4 compounds are collected here from patent publication US6197258A, “Photoluminescent sensors of chemical analytes” (University of Maryland, Baltimore, priority 1999, dated 2001).

Read-outs that look alike come from different tables or passages of the source.

In test [1] the target is T1, wild type human carbonic anhydrase II, holoprotein (holo-CA) (Homo sapiens, UniProt P00918).
T1 construct: made in house; host or cells: E. coli
The test can be described thus: KD of the diffusible inhibitor ABD-N for the holoprotein. The test is classed as binding. As to the method:
Genes for wild type human carbonic anhydrase II and variants were isolated, constructed, and expressed in E. coli as previously described. ABD-N was synthesized by coupling ABD-F (Molecular Probes, Eugene, Oreg.) with excess ethanolamine in DMF at room temperature for 4 hours and lyophilizing. Zn(II) was removed from holo-CA to make apo-CA by treatment with dipicolinate as previously described. Fluorescence anisotropy measurements were obtained on an SLM AB-2 spectrophotofluorimeter according to the manufacturer's recommendations, under the spectral conditions given in the figures.
The changes in anisotropy are also dramatic, going from 0.08 to 0.23 as the apoprotein becomes saturated with Zn(II) (FIG. 37); the ordinary accuracy and precision of such measurements is ±0.003. The apparent KD of the enzyme for Zn(II) under these conditions is about 20 picomolar, which is somewhat higher than published values obtained under slightly different conditions.
The use of a separate, diffusible inhibitor like ABD-N can create difficulties, however. […] This Cu(II) determination, while clearly representing a […] response, cannot be due to simple collisional quenching by the Cu(II) at these low concentrations,and furthermore is more than one thousand-fold more sensitive than previous fluorescence-based determinations of Cu(II).

The target of test [2] is T2, recombinant human carbonic anhydrase II, wild type, holoprotein (holo-CA, Zn(II) bound) (Homo sapiens, UniProt P00918).
T2 construct: made in house; host or cells: E. coli (inferred from 'as previously described'; b198 states E. coli for the wild type gene, b110 states BL21(DE3)pACA for a variant)
The test can be described thus: Affinity of ABD-M for holo-CA from changes in fluorescence intensity or anisotropy. Format: binding. Conditions: holocarbonic anhydrase. An excerpt:
Our approach for determining metal ions by fluorescence anisotropy is diagrammed in FIG. 16. ABD-M was synthesized by coupling ABD-F (7-fluoro-benz-2-oxa-1,3-diazole-4-sulfonamide; Molecular Probes Cat. No.F-6053) with excess beta-mercaptoethanol in dimethylformamide overnight at room temperature (FIG. 17). […] Recombinant human carbonic anhydrase II was expressed, isolated, and purified; and its Zn(II) removed by treatment with dipicolinate all as previously described. In view of the well-known difficulty of reproducibly preparing solutions with low concentrations of free zinc ion, we prepared a series of metal ion buffers using nitrilotriacetic acid (NTA) and MOPS. […] The concentration of Zn(II) unbound at a particular pH is readily calculable from the known stability constants of the NTA and the pKa's of NTA's ionizable groups (19). […]
Fluorescence spectra, intensities and anisotropies were measured on a Spectronics AB-2 fluorimeter using film polarizers and 4 nm bandpasses. Frequency-dependent phase shifts and demodulations were measured on an ISS K2 phase fluorometer using the UV lines of a Spectra-Physics 2065 argon ion laser for excitation, dimethylPOPOP in ethanol as a reference compound as previously described, and bandpass filters as indicated in the figure legends. […]

Test [3] addresses T2, recombinant human carbonic anhydrase II, wild type, holoprotein (holo-CA, Zn(II) bound). As to conditions: comparison value, conditions not given; read-out: affinity (dansylamide, comparison value); cited from earlier work.
For test [4], the target named is T3, recombinant human carbonic anhydrase II, holocarbonic anhydrase II (Homo sapiens, UniProt P00918).
T3 construct: made in house; host or cells: E. coli (inferred from 'by the means previously discussed herein'; b110 states E. coli BL21(DE3)pACA for a variant)
The test is described as follows: Affinity of holocarbonic anhydrase for Dapoxyl sulfonamide from fluorescence intensity changes. The test is classed as binding. As to conditions: from fluorescence intensity changes (data not shown). As to the method:
The recombinant human carbonic anhydrase II was obtained by the means previously discussed herein. Fluorescence spectra and anisotropies were determined on a Spectronics AB-2 spectrophotofluorometer; the former are uncorrected. Fluorescence lifetimes were determined on an ISS K2 multifrequency phase fluorometer using the 442 nm line (30 mW) of a Kimmon HeCd laser (for BTCS) or the ultraviolet lines (100 mW) of a Spectra-Physics model 2065-7S argon ion laser (for dapoxyl sulfonamide) essentially as previously described. […]
In particular, emission of the bound form shifts from a peak at 605 nm to 530 nm, and increases about 90-fold, compared to the free form. […] The advantages of intensity ratios for accuracy in quantitating concentrations of metal ions such as calcium are by now widely appreciated. These intensity changes permit the affinity of holocarbonic anhydrase for Dapoxyl sulfonamide to be determined as […] (data not shown). The intensity increase of dapoxyl sulfonamide is also accompanied by a large increase in fluorescence lifetime. We measured the frequency-dependent phase angles and demodulation of dapoxyl sulfonamide free in solution, in the presence of holocarbonic anhydrase II, and in the presence of sonicated unilamellar vesicles of DOPC/cholesterol 3:1 (0.1 M). […]

`NS(=O)(=O)c1ccc(NCCO)c2nonc12` [ABD-N, 7-fluorobenz-2-oxa-1,3,-diazole-4-sulfonamide:ethanolamine adduct]: the Kd in test [1] was approximately 300 nM.

Take `NS(=O)(=O)c1ccc(SCCO)c2nonc12` [ABD-M, 7-fluorobenz-2-oxa-1,3,-diazole-4-sulfonamide+beta-mercaptoethanol adduct]: the Kd in test [2] was 300 nM.

In the case of `CN(C)c1cccc2c(S(N)(=O)=O)cccc12` [dansylamide], the Kd in test [3] was 800 nM.

`CN(C)c1ccc(-c2cnc(-c3ccc(S(N)(=O)=O)cc3)o2)cc1` [Dapoxyl sulfonamide]: in test [4], the Kd was 300 nM.
